This is an account of results in US20230265116A1, “DEGRADATION OF (EGFR) BY CONJUGATION OF EGFR INHIBITORS WITH E3 LIGASE LIGAND AND METHODS OF USE” (BEIGENE, LTD., priority 2020, published 2023).

Holding throughout (type): cell-based
Assay [1] concerns EGFR Del19/C797S (H1975-clone #23). As to the kind of experiment: EGFR degradation HTRF assay, H1975-clone #23 DC cells. As to conditions: for H1975 #23 DC Dmax (%): maximum percentage of degradation. The gist of the method:
(§1)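 Lentiviral Del19/T790M/C797S (clone #28) or Del19/C797S (clone #23) EGFR expressed in H1975 with endogenous EGFR knocked out. Cells treated 16 h, 37 °C, 8 doses, 5-fold from 10 uM top, 0.2% DMSO; EGFR read by HTRF after lysis. Degradation % vs DMSO control; DC50, Dmax from four-parameter fit.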
For orientation: Time-resolved FRET reads energy transfer from a long-lived donor to a nearby acceptor.

Assay [2] deals with EGFR Del19/T790M/C797S (H1975-clone #28). As to the kind of experiment: EGFR degradation HTRF assay, H1975-clone #28 DTC cells. The gist of the method:
as §1

Assay [3] concerns the target T1, EGFR L858R/C797S (BaF3 LC cells) (Homo sapiens, UniProt P00533, C797S/L858R).
T1 construct: expressed in transfected cells; host or cells: BaF3
Briefly: EGFR degradation HTRF assay, BaF3 LC cells. As to conditions: BaF3 LC, 16h treatment; for Dmax: maximum percentage of degradation, read-out: BaF3 LC Dmax (%); for DC50: read-out: BaF3 LC DC50.

The target in assay [4] is T2, EGFR L858R/T790M/C797S (BaF3-LTC cells) (Homo sapiens, UniProt P00533, C797S/L858R/T790M).
T2 construct: expressed in transfected cells; host or cells: BaF3
As to the kind of experiment: EGFR degradation HTRF assay, BaF3-LTC cells. Conditions: BaF3-LTC cells; for DC50: EGFR degradation, IC50 (DC50) from curve fit, read-out: DC50(nM) BaF3-LTC; for Dmax: maximum percentage of inhibition (degradation), read-out: Dmax (%) BaF3-LTC. The gist of the method:
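Cells treated 16 h at 37 °C, 5% CO2 in medium with 0.2% DMSO; top final concentration 10 uM, 5-fold dilution, 8 doses. Lysates read by HTRF (665/620 nm); degradation % versus DMSO high control, DC50 from four-parameter fit, Dmax as maximal degradation.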

Setting [5] is: H1975 #23 DC, 16h treatment, read-out: H1975 #23 DC DC50.
[6] abbreviates: H1975 # 28 DTC cells; EGFR degradation, IC50 (DC50) from curve fit; read-out: DC50(nM) H1975 # 28 DTC.
Where [7] appears, read: H1975 # 28 DTC cells; maximum percentage of inhibition (degradation).

Read-outs that look alike come from different tables or passages of the source.

T1 sequence (P00533 25-1210 C797S/L858R): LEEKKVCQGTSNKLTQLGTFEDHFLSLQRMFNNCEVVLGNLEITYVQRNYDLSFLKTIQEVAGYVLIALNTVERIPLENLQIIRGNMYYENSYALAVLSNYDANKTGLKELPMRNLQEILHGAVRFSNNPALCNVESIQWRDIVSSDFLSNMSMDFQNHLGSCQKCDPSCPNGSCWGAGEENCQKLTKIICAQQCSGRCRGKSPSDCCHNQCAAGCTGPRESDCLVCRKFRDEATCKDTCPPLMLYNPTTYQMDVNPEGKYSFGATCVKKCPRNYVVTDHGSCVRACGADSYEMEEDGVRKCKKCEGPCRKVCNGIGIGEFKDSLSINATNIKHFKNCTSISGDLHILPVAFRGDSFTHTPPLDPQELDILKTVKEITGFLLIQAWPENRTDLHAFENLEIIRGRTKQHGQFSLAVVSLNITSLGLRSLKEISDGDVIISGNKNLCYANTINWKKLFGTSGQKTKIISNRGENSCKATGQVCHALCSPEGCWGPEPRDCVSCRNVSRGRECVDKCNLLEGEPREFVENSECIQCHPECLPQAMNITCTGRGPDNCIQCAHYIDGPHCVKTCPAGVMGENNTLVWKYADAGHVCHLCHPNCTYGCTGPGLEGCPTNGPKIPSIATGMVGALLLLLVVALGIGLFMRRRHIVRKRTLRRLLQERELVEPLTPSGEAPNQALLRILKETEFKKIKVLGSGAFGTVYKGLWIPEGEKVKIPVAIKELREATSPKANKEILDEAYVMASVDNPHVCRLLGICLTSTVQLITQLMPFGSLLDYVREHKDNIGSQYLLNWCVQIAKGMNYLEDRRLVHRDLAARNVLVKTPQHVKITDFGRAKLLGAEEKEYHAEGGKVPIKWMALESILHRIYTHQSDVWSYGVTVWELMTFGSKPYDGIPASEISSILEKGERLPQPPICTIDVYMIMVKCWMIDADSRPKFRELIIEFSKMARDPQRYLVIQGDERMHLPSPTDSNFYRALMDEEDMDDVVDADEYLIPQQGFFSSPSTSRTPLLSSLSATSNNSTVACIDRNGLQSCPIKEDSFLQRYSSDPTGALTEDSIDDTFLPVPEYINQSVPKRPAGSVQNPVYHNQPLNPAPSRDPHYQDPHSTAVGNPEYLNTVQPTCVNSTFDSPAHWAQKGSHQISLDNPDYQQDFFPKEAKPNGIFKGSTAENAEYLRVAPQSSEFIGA
T2 sequence (P00533 25-1210 T790M/C797S/L858R): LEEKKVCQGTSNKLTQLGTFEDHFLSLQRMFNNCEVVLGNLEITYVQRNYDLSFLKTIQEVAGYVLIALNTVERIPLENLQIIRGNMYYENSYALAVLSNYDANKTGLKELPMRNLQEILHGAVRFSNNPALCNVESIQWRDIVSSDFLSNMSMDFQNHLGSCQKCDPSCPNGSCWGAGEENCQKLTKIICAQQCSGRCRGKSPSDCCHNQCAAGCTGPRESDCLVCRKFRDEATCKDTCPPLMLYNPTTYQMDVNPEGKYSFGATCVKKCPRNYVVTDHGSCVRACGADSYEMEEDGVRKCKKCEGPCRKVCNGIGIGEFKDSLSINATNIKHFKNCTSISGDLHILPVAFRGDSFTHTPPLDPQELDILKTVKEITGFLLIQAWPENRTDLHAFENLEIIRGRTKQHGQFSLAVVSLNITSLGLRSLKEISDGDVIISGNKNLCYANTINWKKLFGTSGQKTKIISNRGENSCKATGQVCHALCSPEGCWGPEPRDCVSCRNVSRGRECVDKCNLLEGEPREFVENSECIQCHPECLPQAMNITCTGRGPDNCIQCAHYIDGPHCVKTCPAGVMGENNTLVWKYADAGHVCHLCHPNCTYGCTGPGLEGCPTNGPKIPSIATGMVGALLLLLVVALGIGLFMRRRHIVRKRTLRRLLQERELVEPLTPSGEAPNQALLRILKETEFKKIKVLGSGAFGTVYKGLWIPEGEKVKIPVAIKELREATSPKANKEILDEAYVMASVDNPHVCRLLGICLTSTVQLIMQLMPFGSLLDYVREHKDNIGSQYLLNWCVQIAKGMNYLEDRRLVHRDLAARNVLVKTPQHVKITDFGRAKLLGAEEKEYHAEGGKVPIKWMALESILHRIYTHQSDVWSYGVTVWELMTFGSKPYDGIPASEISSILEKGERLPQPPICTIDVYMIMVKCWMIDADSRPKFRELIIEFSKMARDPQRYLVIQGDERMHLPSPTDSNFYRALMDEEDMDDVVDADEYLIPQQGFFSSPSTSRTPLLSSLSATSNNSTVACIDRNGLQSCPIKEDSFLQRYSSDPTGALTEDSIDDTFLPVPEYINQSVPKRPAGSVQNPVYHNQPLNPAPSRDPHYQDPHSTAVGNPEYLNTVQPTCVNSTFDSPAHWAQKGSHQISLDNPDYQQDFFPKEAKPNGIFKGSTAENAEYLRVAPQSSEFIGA

By DC50 is commonly meant the midpoint of the concentration-degradation curve. What is called Dmax is the greatest extent of degradation seen. As to `CCc1cc(Nc2ncc(Br)c(Nc3ccc4nc(C)ccc4c3P(C)(C)=O)n2)c(OC)cc1N1CCC(N2CCN(CCc3ccc4c(c3)oc(=O)n4C3CCC(=O)NC3=O)CC2)CC1` (stereo not drawn) [Example 490, 3-(6-(2-(4-(1-(4-((5-bromo-4-((5-(dimethylphosphoryl)-2-methylquinolin-6-yl)amino)pyrimidin-2-yl)amino)-2-ethyl-5-methoxyphenyl)piperidin-4-yl)piperazin-1-yl)ethyl)-2-oxobenzo[d]oxazol-3(2H)-yl)piperidine-2,6-dione], the “H1975 #23 DC Dmax (%)” value in assay [1] (16h treatment) came to 64.67%. For the same molecule, the DC50 in assay [1] (setting [5]) came out at 0.974 nM; in assay [2] (setting [6]), 0.2 nM; in assay [3] it was 2.41 nM; in assay [4], 1.3 nM. For the same molecule, the “Dmax (%) H1975 # 28 DTC” value in assay [2] (setting [7]) is 80.5%. Besides, the results for the Dmax in assay [3] and in assay [4] were 95.7% and 92.8%, respectively.
Regarding `CCc1ccc2c(P(C)(C)=O)c(Nc3nc(Nc4cc(CC)c(N5CCC(N6CCN(CCc7ccc8c(c7)oc(=O)n8C7CCC(=O)NC7=O)CC6)CC5)cc4OC)ncc3Br)ccc2n1` (stereo not drawn) [Example 491, 3-(6-(2-(4-(1-(4-((5-bromo-4-((5-(dimethylphosphoryl)-2-ethylquinolin-6-yl)amino)pyrimidin-2-yl)amino)-2-ethyl-5-methoxyphenyl)piperidin-4-yl)piperazin-1-yl)ethyl)-2-oxobenzo[d]oxazol-3(2H)-yl)piperidine-2,6-dione], in assay [1] (16h treatment), the “H1975 #23 DC Dmax (%)” value is 58.85%. Besides, the DC50 was determined as 0.85 nM in assay [1] (setting [5]), 0.647 nM in assay [2] (setting [6]), 2.34 nM in assay [3] and 2.72 nM in assay [4]. In assay [2] (setting [7]), the “Dmax (%) H1975 # 28 DTC” value is given as 78.48%.
For the molecule `CCOc1cc(N2CCC(N3CCN(CCc4cc5oc(=O)n(C6CCC(=O)NC6=O)c5cc4F)CC3)CC2)c(CC)cc1Nc1ncc(Br)c(Nc2ccc3nc(CC)ccc3c2P(C)(C)=O)n1` (stereo not drawn) [Example 492, 3-(6-(2-(4-(1-(4-((5-bromo-4-((5-(dimethylphosphoryl)-2-ethylquinolin-6-yl)amino)pyrimidin-2-yl)amino)-5-ethoxy-2-ethylphenyl)piperidin-4-yl)piperazin-1-yl)ethyl)-5-fluoro-2-oxobenzo[d]oxazol-3(2H)-yl)piperidine-2,6-dione], the “H1975 #23 DC Dmax (%)” value in assay [1] (16h treatment) came out at 51.44%. Also, the DC50 worked out at 3.07 nM in assay [1] (setting [5]), 0.605 nM in assay [2] (setting [6]), 4.28 nM in assay [3] and 3.39 nM in assay [4]. The “Dmax (%) H1975 # 28 DTC” value in assay [2] (setting [7]) is 70.88%. In addition, the Dmax was 79.5% in assay [3] and 95.5% in assay [4].
With `CCOc1cc(N2CCC(N3CCN(CCc4cccc5c4oc(=O)n5C4CCC(=O)NC4=O)CC3)CC2)c(CC)cc1Nc1ncc(Br)c(Nc2cc(F)c3nc(CC)ccc3c2P(C)(C)=O)n1` (stereo not drawn) [Example 493, 3-(7-(2-(4-(1-(4-((5-bromo-4-((5-(dimethylphosphoryl)-2-ethyl-8-fluoroquinolin-6-yl)amino)pyrimidin-2-yl)amino)-5-ethoxy-2-ethylphenyl)piperidin-4-yl)piperazin-1-yl)ethyl)-2-oxobenzo[d]oxazol-3 (2H)-yl)piperidine-2,6-dione], the “H1975 #23 DC Dmax (%)” value in assay [1] (16h treatment) was 63.11%. Besides, the DC50 in assay [1] (setting [5]) amounted to 11.2 nM; in assay [2] (setting [6]) it was 0.588 nM; in assay [3], 24.3 nM; in assay [4], 2.71 nM. Also, the “Dmax (%) H1975 # 28 DTC” value in assay [2] (setting [7]) is recorded as 70.43%.
`CCOc1cc(N2CCC(N3CCN(CCCc4cc(F)cc5c4oc(=O)n5C4CCC(=O)NC4=O)CC3)CC2)c(CC)cc1Nc1ncc(Br)c(Nc2ccc3nc(CC)ccc3c2P(C)(C)=O)n1` (stereo not drawn) [Example 496, 3-(7-(3-(4-(1-(4-((5-bromo-4-((5-(dimethylphosphoryl)-2-ethylquinolin-6-yl)amino)pyrimidin-2-yl)amino)-5-ethoxy-2-ethylphenyl)piperidin-4-yl)piperazin-1-yl)propyl)-5-fluoro-2-oxobenzo[d]oxazol-3(2H)-yl)piperidine-2,6-dione]: in assay [1] (16h treatment), the “H1975 #23 DC Dmax (%)” value is on record as 95.59%. In addition, the DC50 in assay [1] (setting [5]) turned out to be 0.787 nM; in assay [2] (setting [6]), 0.92 nM; in assay [3] it was 2.23 nM; in assay [4], 2.3 nM. Further, in assay [2] (setting [7]), the “Dmax (%) H1975 # 28 DTC” value is recorded as 75.32%. Also, the Dmax in assay [3] is 91.3%; in assay [4], 85.5%.
For the molecule `CCOc1cc(N2CCC(N3CCN(CC4CN(c5cccc6c5oc(=O)n6C5CCC(=O)NC5=O)C4)CC3)CC2)c(CC)cc1Nc1ncc(Br)c(Nc2ccc3nc(CC)ccc3c2P(C)(C)=O)n1` (stereo not drawn) [Example 497], the “H1975 #23 DC Dmax (%)” value in assay [1] (16h treatment) came out at 74.87%. Moreover, the DC50 stood at 3.32 nM in assay [1] (setting [5]), 1.01 nM in assay [2] (setting [6]), 5.19 nM in assay [3] and 6.27 nM in assay [4]. Besides, the “Dmax (%) H1975 # 28 DTC” value in assay [2] (setting [7]) stood at 80.94%. Besides, the Dmax in assay [3] turned out to be 93.3%; in assay [4], 86.6%.
`CCOc1cc(N2CCC(N3CCN(CCc4cc5oc(=O)n(C6CCC(=O)NC6=O)c5cc4F)CC3)CC2)c(CC)cc1Nc1ncc(Br)c(Nc2cc(F)c3nc(CC)ccc3c2P(C)(C)=O)n1` (stereo not drawn) [Example 498, 3-(6-(2-(4-(1-(4-((5-bromo-4-((5-(dimethylphosphoryl)-2-ethyl-8-fluoroquinolin-6-yl)amino)pyrimidin-2-yl)amino)-5-ethoxy-2-ethylphenyl)piperidin-4-yl)piperazin-1-yl)ethyl)-5-fluoro-2-oxobenzo[d]oxazol-3(2H)-yl)piperidine-2,6-dione]: in assay [1] (16h treatment), the “H1975 #23 DC Dmax (%)” value was 66.76%. The DC50 amounted to 0.377 nM in assay [1] (setting [5]), 2.1 nM in assay [2] (setting [6]), 0.718 nM in assay [3] and 7.62 nM in assay [4]. In assay [2] (setting [7]), the “Dmax (%) H1975 # 28 DTC” value was found to be 86.84%. The Dmax in assay [3] was found to be 92.9%; in assay [4], 91.4%.
`CCc1ncc2c(P(C)(C)=O)c(Nc3nc(Nc4cc(CC)c(N5CCC(N6CCN(CCc7ccc8c(c7)oc(=O)n8C7CCC(=O)NC7=O)CC6)CC5)cc4OC)ncc3Br)ccc2n1` (stereo not drawn) [Example 499, 3-(6-(2-(4-(1-(4-((5-bromo-4-((5-(dimethylphosphoryl)-2-ethylquinazolin-6-yl)amino)pyrimidin-2-yl)amino)-2-ethyl-5-methoxyphenyl)piperidin-4-yl)piperazin-1-yl)ethyl)-2-oxobenzo[d]oxazol-3(2H)-yl)piperidine-2,6-dione]: the “H1975 #23 DC Dmax (%)” value in assay [1] (16h treatment) was 61.96%. Also, the DC50 in assay [1] (read-out: H1975 #23 DC DC50, 16h treatment) is 0.646 nM; in assay [2] (read-out: DC50(nM) H1975 # 28 DTC; H1975 # 28 DTC cells; EGFR degradation, IC50 (DC50) from curve fit), 0.185 nM; in assay [3] it was 0.955 nM; in assay [4], 1.95 nM. Further, the “Dmax (%) H1975 # 28 DTC” value in assay [2] (setting [7]) is on record as 77.41%.
In the case of `CCOc1cc(N2CCC(N3CCN(CCc4ccc5c(c4)oc(=O)n5C4CCC(=O)NC4=O)CC3)CC2)c(CC)cc1Nc1ncc(Br)c(Nc2cc(F)c3nc(CC)ccc3c2P(C)(C)=O)n1` (stereo not drawn) [Example 500, 3-(6-(2-(4-(1-(4-((5-bromo-4-((5-(dimethylphosphoryl)-2-ethyl-8-fluoroquinolin-6-yl)amino)pyrimidin-2-yl)amino)-5-ethoxy-2-ethylphenyl)piperidin-4-yl)piperazin-1-yl)ethyl)-2-oxobenzo[d]oxazol-3(2H)-yl)piperidine-2,6-dione], the “H1975 #23 DC Dmax (%)” value in assay [1] (16h treatment) amounted to 55.74%. The DC50 in assay [1] (setting [5]) amounted to 1.11 nM; in assay [2] (setting [6]), 0.413 nM; in assay [3] it was 1.11 nM; in assay [4], 2.42 nM. The “Dmax (%) H1975 # 28 DTC” value in assay [2] (setting [7]) worked out at 71.9%. Further, the Dmax in assay [3] worked out at 92%; in assay [4] it was 84.8%.
